Source: PubChem BioAssay (NCI)
Values joined by “and” are separate entries in the source; they are usually repeats but may differ in a detail not shown here. Equal values may be shown once.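 Results reflect a 48-hour exposure of cells in 96-well plates to compound at five concentrations. Abbreviation: GI50, concentration required for 50% inhibition of growth. TGI marks complete inhibition of growth.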

Experiments:
Assay in all cases: DTP human tumour cell line panel, 48 h
HT29 colon = tested on: HT29 colon
NCI-H522 lung = tested on: NCI-H522 lung
SK-OV-3 ovarian = tested on: SK-OV-3 ovarian
MCF7 breast = tested on: MCF7 breast
NCI-H460 lung = tested on: NCI-H460 lung
UACC-62 melanoma = tested on: UACC-62 melanoma
U251 CNS = tested on: U251 CNS
OVCAR-3 ovarian = tested on: OVCAR-3 ovarian
A498 renal = tested on: A498 renal
HS 578T breast = tested on: HS 578T breast
COLO 205 colon = tested on: COLO 205 colon
PC-3 prostate = tested on: PC-3 prostate
CAKI-1 renal = tested on: CAKI-1 renal
SNB-75 CNS = tested on: SNB-75 CNS
SW-620 colon = tested on: SW-620 colon
CCRF-CEM leukemia = tested on: CCRF-CEM leukemia
SNB-19 CNS = tested on: SNB-19 CNS
T-47D breast = tested on: T-47D breast
SK-MEL-28 melanoma = tested on: SK-MEL-28 melanoma
DU-145 prostate = tested on: DU-145 prostate
SN12C renal = tested on: SN12C renal
SK-MEL-2 melanoma = tested on: SK-MEL-2 melanoma
HOP-92 NSCLC = tested on: HOP-92 NSCLC
HCT-116 colon = tested on: HCT-116 colon
BT-549 breast = tested on: BT-549 breast
K-562 leukemia = tested on: K-562 leukemia
UACC-257 melanoma = tested on: UACC-257 melanoma
A549 NSCLC = tested on: A549 NSCLC
SK-MEL-5 melanoma = tested on: SK-MEL-5 melanoma

## CC(C)C[C@@H](NC(=O)[C@@H](Cc1ccccc1)NC(=O)c1cnccn1)B1Oc2ccc(C[C@H](NC(=O)[C@H](Cc3ccc4c(c3)OB([C@@H](CC(C)C)NC(=O)[C@@H](Cc3ccccc3)NC(=O)c3cnccn3)O4)NC(=O)[C@@H](N)CC3CCC4OB([C@@H](CC(C)C)NC(=O)[C@@H](CC5CCCCC5)NC(=O)C5CNCCN5)OC4C3)C(=O)NCCCC[C@@H]3NC(=O)[C@@H](Cc4ccccc4)NC(=O)[C@H](CC(=O)O)NC(=O)CNC(=O)[C@H](CCCNC(=N)N)NC3=O)cc2O1 (stereo not given in full)
HT29 colon
  GI50: 3.73 nM and 2.5 nM
NCI-H522 lung
  GI50: 3.33 nM and 2.5 nM
  TGI: 17.9 nM and 3.85 nM
SK-OV-3 ovarian
  GI50: 30.9 nM and 7.54 nM
  TGI: 694 nM
MCF7 breast
  GI50: 3.78 nM and 2.5 nM
  TGI: 439 nM
NCI-H460 lung
  GI50: 25.3 nM and 7.96 nM
  TGI: 115 nM and 32.2 nM
UACC-62 melanoma
  GI50: 4.12 nM and 2.5 nM
U251 CNS
  GI50: 11.7 nM and 4.76 nM
  TGI: 149 nM and 21 nM
OVCAR-3 ovarian
  GI50: 2.53 nM and 2.5 nM
  TGI: 6.73 nM and 3.27 nM
A498 renal
  GI50: 3.36 nM and 2.5 nM
  TGI: 10.7 nM and 5.35 nM
HS 578T breast
  GI50: 4.19 nM and 2.5 nM
  TGI: > 25000 nM
COLO 205 colon
  GI50: 5.51 nM and 5.55 nM
  TGI: 293 nM and 86.4 nM
PC-3 prostate
  GI50: 13.5 nM and 6.32 nM
  TGI: 186 nM and 60.4 nM
CAKI-1 renal
  GI50: 3.55 nM and 7.13 nM
  TGI: 22.2 nM and 38.3 nM
SNB-75 CNS
  GI50: 3.92 nM
  TGI: 24.8 nM
SW-620 colon
  GI50: 4.26 nM and 2.5 nM
  TGI: 115 nM and 261 nM
CCRF-CEM leukemia
  GI50: 3.82 nM and 2.5 nM
  TGI: > 25000 nM
SNB-19 CNS
  GI50: 13.6 nM and 2.5 nM
  TGI: 4700 nM
T-47D breast
  GI50: 3.88 nM and 2.5 nM
  TGI: 41.1 nM and 11.7 nM
SK-MEL-28 melanoma
  GI50: 5.63 nM and 2.5 nM
  TGI: 517 nM and 106 nM
DU-145 prostate
  GI50: 5.74 nM and 2.5 nM
  TGI: 2980 nM
SN12C renal
  GI50: 7.93 nM and 4.85 nM
  TGI: 80.4 nM and 31.9 nM
SK-MEL-2 melanoma
  GI50: 5.45 nM and 2.5 nM
  TGI: 64.9 nM and 9.2 nM
HOP-92 NSCLC
  GI50: 3.69 nM and 2.5 nM
  TGI: 26.7 nM and 9.53 nM
HCT-116 colon
  GI50: 2.73 nM and 2.5 nM
  TGI: 16.4 nM and 2.9 nM
BT-549 breast
  GI50: 2.58 nM and 2.5 nM
  TGI: 8.12 nM and 3.01 nM
K-562 leukemia
  GI50: 0.713 nM and 2.5 nM
  TGI: > 25000 nM
UACC-257 melanoma
  GI50: 4.33 nM and 3.35 nM
  TGI: 49.6 nM and 15.6 nM
A549 NSCLC
  GI50: 7.23 nM and 8.38 nM
  TGI: 321 nM
SK-MEL-5 melanoma
  GI50: 3.01 nM and 2.5 nM
